From ChEMBL document CHEMBL1201862, “PubChem BioAssay data set” (2004)
Activity calls are given as the source filed them.

Legend:
[1] = Counterscreen for AddAB inhibitors: absorbance-based bacterial cell-based high throughput dose response assay for inhibitors of bacterial viability. [Related pubchem assays (depositor defined):AID435030, AID449728, AID449731, AID488942, AID488955, AID488956]; format: functional
[2] = molecular target: T1, Rac GTPase-activating protein 1 (Homo sapiens, UniProt Q9H0H5); assay: MgcRacGAP GTPase-activating activity inhibitors, confirmation, biochemical, ADP Hunter fluorescence, primary and confirmatory (AID 624330); format: functional
T1 sequence (Q9H0H5 whole entry): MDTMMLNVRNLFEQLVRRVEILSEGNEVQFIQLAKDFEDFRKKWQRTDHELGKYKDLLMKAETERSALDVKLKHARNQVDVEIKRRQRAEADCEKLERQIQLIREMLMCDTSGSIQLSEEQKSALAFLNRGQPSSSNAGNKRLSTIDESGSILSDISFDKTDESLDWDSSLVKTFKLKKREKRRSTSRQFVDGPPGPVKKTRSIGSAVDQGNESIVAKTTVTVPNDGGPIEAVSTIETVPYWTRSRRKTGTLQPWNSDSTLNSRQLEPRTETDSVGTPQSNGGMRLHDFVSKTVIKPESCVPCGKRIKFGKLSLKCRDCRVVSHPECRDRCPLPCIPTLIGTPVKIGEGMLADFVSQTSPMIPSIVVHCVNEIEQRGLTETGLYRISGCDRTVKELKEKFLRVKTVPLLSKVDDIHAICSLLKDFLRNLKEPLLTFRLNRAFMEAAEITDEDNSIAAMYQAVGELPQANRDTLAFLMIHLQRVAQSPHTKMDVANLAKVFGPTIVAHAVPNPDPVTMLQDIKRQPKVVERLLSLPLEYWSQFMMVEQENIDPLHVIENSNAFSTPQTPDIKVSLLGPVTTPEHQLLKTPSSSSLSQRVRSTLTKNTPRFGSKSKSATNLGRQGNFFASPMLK

[3] = HeLa cell cytotoxicity, dose response, cytotoxicity control for MgcRacGAP inhibitor project (AID 624300); format: functional
[4] = molecular target: Prothrombin (Bos taurus, UniProt P00735); assay: thrombin inhibition, dose response, biochemical, fluorescence polarization, uHTS hits (AID 602369); format: functional
[5] = molecular target: Dual specificity tyrosine-phosphorylation-regulated kinase 1A (Rattus norvegicus, UniProt Q63470); format: biochemical, Homo sapiens

Structure (SMILES) | IC50 [1] | IC50 [2] | CC50 [3] | IC50 [4] | AC50 [5]
O=[N+]([O-])c1ccc(N/N=C/c2ccc[nH]2)cc1 | > 119 µM (inactive) | 44.5 µM (active) | 100 µM (active) | 9.84 µM (active) | 
CC(=O)N(/N=C1\Sc2ccccc2C1=O)c1cccc(C)c1 |  |  |  |  | 28.1 µM (active)
